Patent publication US8895695B2, “Template-fixed beta-hairpin peptidomimetics with CXCR4 antagonizing activity” (priority 2003, dated 2014)
Bridge positions count the residues as written; N and C are the ends. Square brackets hold non-standard residues; d marks the D form. Peptide text beside a SMILES is read from it. 2Nal = N[C@@H](Cc1ccc2ccccc2c1)C(=O)O; Cit = NC(=O)NCCC[C@H](N)C(=O)O

Key:
[1] = tested on: human red blood cells (hRBC); assay: Hemolysis; format: cell-based
Outline: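 Washed fresh human erythrocytes (20% v/v, about 0.9×10^9 cells/ml final) incubated with peptide at 100 μM for 1 h at 37° C. Supernatant diluted 20-fold and OD540 read. Percent hemolysis relative to 0.1% Triton X-100 in H2O (100%), with PBS alone as 0%.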

CXCR4 = CXCR4 (Homo sapiens, UniProt P61073); assay: Ca2+-assay method 1: CXCR4-antagonizing activity; format: cell-based; design: expressed in transfected cells; settings: method 1 (Ex. 1-53), CXCR4 transfected pre-B cells, Fura-2; read-out: IC50 (nM) Ca^2+ assay
Experimental: 2.2. Ca^2+-Assay: CXCR4-Antagonizing Activity of the Peptides.
The cells were washed free from Fura-2-AM with a platelet centrifuge and resuspended in 800 μl MSB containing 5 mM D-Glucose. The peptides to be administered were diluted to a 100 fold end concentration in MSB/0.2% PPL, and 8 μl were injected. […] Measurements were done under continuous stirring at 37° C. The signal intension was calibrated with 3 mM CaCl2/[…] lonomycin (maximal fura-2-acetoxymethylester saturation) and 10 μM MnCl2 (minimal Fura-2-acetoxymethylester saturation) and [Ca^2+]i-changes are presented in % fora-2-acetoxymethylester saturation. The rate of [Ca^2+]i-changes was calculated on the basis of the initial [Ca^2+]i-changes and plotted in dependence of chemokine concentration to obtain a sigmoidal curve and to determine the IC50 values.
Osmolarity: 310 mOsm adjusted with NaOH or HCl, adjusted with H2O or PBS.
MSB plus: 5 mM D-glucose in MSB (50 mg/50 mL).
Fura 2-acetoxymethylester: 1 mM stock solution in dimethylsulfoxide.

in vitro = settings: human, HELA cells (Acc57)
[2] = tested on: 'CCR5' cells / Hut/4-3 cells co-cultivation; assay: FIGS-Assay; format: cell-based; settings: 200 nM peptide, 48 hours of co-cultivation
Experimental: The assay was performed according to ref. 5, below. Stock dilutions of the peptides (10 mM) were prepared by dissolving in 10 mM Tris-HCl at room temperature. Stock solutions were kept at +4° C., light protected. Working dilutions were prepared extemporaneously by serial dilution in Phosphate Buffered Saline (PBS) and added in a final volume of 10 μl directly to the cell cultures. After 48 hours of co-cultivation the cultures were rinsed with PBS and then exposed to glutaraldehyde/formaldehyde (0.2%/2%) in PBS for five minutes. For photometric quantification the fixed cultures were subsequently incubated with ortho-nitro-phenyl-galactopyranoside (ONPG) as a β-galactosidase substrate, which was enzymatically converted into the chromophore ortho-nitrophenol (ONP). The read out is directly obtained by measuring optical density of wells at 405 nm in an iEMS 96well-plate reader.
(§1) All fine chemicals came from Merck (Darmstadt, Germany).

[3] = Cytotoxicity assay (MTT reduction), HELA cells; settings: human, HELA cells (Acc57);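 also: MTT reduction read as absorbance at 595 nm, blank-corrected and expressed as percent growth relative to the time-zero cell reading, triplicate wells per concentration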
CCRF-CEM cells = assay: Chemotactic assay (cell migration assay); format: cell-based; settings: 1 nM SDF-1, 4 hours
Experimental: as §1
2.7. Chemotactic Assay (Cell Migration Assay)
The chemotactic response of CCRF-CEM cells to a gradient of stromal cell-derived factor 1α (SDF-1) was measured using disposable assay plates from Neuroprobe (5μ pore size) (Gaithersburg, Md.), according to the manufacturer's directions and references therein [especially ref. 8, below]. Briefly, one 175 cm^2 flask was washed once with Dubecco's phosphate buffered saline (DPBS), and trypsinized for 10 minutes or until cells had lifted. The trypsin was neutralized by the addition of fresh medium containing serum and the cells were pelleted, washed once in DPBS, and resuspended at 1-0.5×10^7 cells/ml in RPMI+0.5% bovine serum albumin (BSA). 45 μl of cell suspension were mixed with 5 μl of 10-fold concentrated PEM peptide diluted in the same assay medium. […] The optical absorbance at 595 nm (ABS595) was read using a Tecan Genios plate reader with Magellan software. The number of cells migrated was determined by comparing ABS595 values against a standard curve generated with a known number of cells in the assay plate and were plotted against SDF-1 concentration to obtain a sigmoidal curve and to determine the IC50 values. The values for IC50 were determined using the Trendline function in Microsoft Excel by fitting a logarithmic curve to the averaged datapoints.

CXCR4, sequence (P61073 whole entry): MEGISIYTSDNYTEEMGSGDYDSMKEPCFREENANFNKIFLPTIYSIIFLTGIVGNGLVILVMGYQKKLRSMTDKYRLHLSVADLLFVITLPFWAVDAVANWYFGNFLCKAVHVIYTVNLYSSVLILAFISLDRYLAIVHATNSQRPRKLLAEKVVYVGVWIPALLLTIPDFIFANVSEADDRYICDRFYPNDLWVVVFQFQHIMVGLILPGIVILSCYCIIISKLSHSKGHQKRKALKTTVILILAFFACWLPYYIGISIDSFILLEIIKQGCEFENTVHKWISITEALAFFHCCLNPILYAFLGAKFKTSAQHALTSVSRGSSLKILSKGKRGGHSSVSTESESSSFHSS

SMILES: CC(C)[C@@H]1NC(=O)[C@H](Cc2ccc3ccccc3c2)NC(=O)[C@H](CCCNC(=N)N)NC(=O)[C@H](CCCNC(=N)N)NC(=O)[C@H]2CCCN2C(=O)[C@H](C(C)C)NC(=O)[C@H](CCCNC(=N)N)NC(=O)[C@H](Cc2ccccc2)NC(=O)[C@H](CCCNC(N)=O)NC(=O)[C@H](CCCNC(=N)N)NC(=O)[C@H](Cc2ccc(O)cc2)NC(=O)[C@@H]2CCCN2C(=O)[C@H]2CCCN2C(=O)[C@H](CCCCN)NC(=O)[C@H](CCCNC(N)=O)NC(=O)[C@H](Cc2ccc(O)cc2)NC1=O [compound 21] (cyclo(YR[Cit]FRV[dP]RR[2Nal]VY[Cit]K[dP]P))
- Hemolysis at 100 μM [1]: 0.6%
- IC50 (CXCR4): 550 nM
- CC50 at 48 h (in vitro): 114 µM

SMILES: CC(C)[C@@H]1NC(=O)[C@H](CCCNC(=N)N)NC(=O)[C@H](Cc2ccccc2)NC(=O)[C@H](CCCNC(N)=O)NC(=O)[C@H](CCCNC(=N)N)NC(=O)[C@H](Cc2ccc(O)cc2)NC(=O)[C@@H]2CCCN2C(=O)[C@H]2CCCN2C(=O)[C@H](CCCCN)NC(=O)[C@H](CCCNC(N)=O)NC(=O)[C@H](Cc2ccc(O)cc2)NC(=O)[C@H](Cc2ccccc2)NC(=O)[C@H](Cc2ccc3ccccc3c2)NC(=O)[C@H](CCCNC(=N)N)NC(=O)[C@H](CCCNC(=N)N)NC(=O)[C@@H]2CCCN2C1=O [compound 28] (cyclo(YR[Cit]FRVPRR[2Nal]FY[Cit]K[dP]P))
- Hemolysis at 100 μM [1]: 0.9%
- IC50 (CXCR4): 2680 nM
- CC50 at 48 h (in vitro): 117 µM

SMILES: CC(C)[C@@H]1NC(=O)[C@H](Cc2ccc3ccccc3c2)NC(=O)[C@H](CCCNC(=N)N)NC(=O)[C@H](CCCNC(=N)N)NC(=O)[C@H]2CCCN2C(=O)[C@H](CCCNC(N)=O)NC(=O)[C@H](CCCNC(=N)N)NC(=O)[C@H](C(C)C)NC(=O)[C@H](CCCNC(N)=O)NC(=O)[C@H](CCCNC(=N)N)NC(=O)[C@H](Cc2ccc(O)cc2)NC(=O)[C@@H]2CCCN2C(=O)[C@H]2CCCN2C(=O)[C@H](CCCCN)NC(=O)[C@H](CCCNC(N)=O)NC(=O)[C@H](Cc2ccc(O)cc2)NC1=O [compound 25] (cyclo(YR[Cit]VR[Cit][dP]RR[2Nal]VY[Cit]K[dP]P))
- Hemolysis at 100 μM [1]: 0%
- IC50 (CXCR4): 1000 nM
- CC50 at 48 h (in vitro): 108 µM

SMILES: CC(C)[C@@H]1NC(=O)[C@H](CCCNC(N)=O)NC(=O)[C@H](CCCNC(=N)N)NC(=O)[C@H](Cc2ccc(O)cc2)NC(=O)[C@@H]2CCCN2C(=O)[C@H]2CCCN2C(=O)[C@H](CCCCN)NC(=O)[C@H](CCCNC(N)=O)NC(=O)[C@H](Cc2ccc(O)cc2)NC(=O)[C@H](Cc2ccccc2)NC(=O)[C@H](Cc2ccc3ccccc3c2)NC(=O)[C@H](CCCNC(=N)N)NC(=O)[C@H](CCCNC(=N)N)NC(=O)[C@H]2CCCN2C(=O)[C@H](C(C)C)NC(=O)[C@H](CCCNC(=N)N)NC1=O [compound 32] (cyclo(YR[Cit]VRV[dP]RR[2Nal]FY[Cit]K[dP]P))
- Hemolysis at 100 μM [1]: 0.5%
- IC50 (CXCR4): 760 nM
- CC50 at 48 h (in vitro): 85 µM

SMILES: CC(C)[C@@H]1NC(=O)[C@H](CCCNC(N)=O)NC(=O)[C@H](CCCNC(=N)N)NC(=O)[C@H](Cc2ccc(O)cc2)NC(=O)[C@@H]2CCCN2C(=O)[C@H]2CCCN2C(=O)[C@H](CCCCN)NC(=O)[C@H](CCCNC(N)=O)NC(=O)[C@H](Cc2ccc(O)cc2)NC(=O)[C@H](Cc2ccccc2)NC(=O)[C@H](Cc2ccc3ccccc3c2)NC(=O)[C@H](CCCNC(=N)N)NC(=O)[C@@H](CCCNC(=N)N)NC(=O)[C@H](CCCNC(=N)N)NC1=O [Ex. 1] (cyclo(YR[Cit]VR[dR]R[2Nal]FY[Cit]K[dP]P))
- Hemolysis at 100 μM [1]: 1.6%
- IC50 (CXCR4): 2280 nM
- CC50 at 48 h (in vitro): 82 µM

SMILES: CC(C)[C@@H]1NC(=O)[C@H](CCCNC(N)=O)NC(=O)[C@H](CCCNC(=N)N)NC(=O)[C@H](Cc2ccc(O)cc2)NC(=O)[C@@H]2CCCN2C(=O)[C@H]2CCCN2C(=O)[C@H](CCCCN)NC(=O)[C@H](CCCNC(N)=O)NC(=O)[C@H](Cc2ccc(O)cc2)NC(=O)[C@H](C(C)C)NC(=O)[C@H](Cc2ccc3ccccc3c2)NC(=O)[C@H](CCCNC(=N)N)NC(=O)[C@H](CCCNC(=N)N)NC(=O)[C@H]2CCCN2C(=O)CNC(=O)[C@H](CCCNC(=N)N)NC1=O [compound 45] (cyclo(YR[Cit]VRG[dP]RR[2Nal]VY[Cit]K[dP]P))
- Hemolysis at 100 μM [1]: 0.4%
- FIGS % inhibition at 200 nM [2]: 65.1%
- CC50 at 48 h (in vitro): 132 µM

SMILES: CC(C)[C@@H]1NC(=O)[C@H](CCCNC(=N)N)NC(=O)[C@@H]2CSSC[C@H](NC(=O)[C@H](Cc3ccc4ccccc4c3)NC(=O)[C@H](CCCNC(=N)N)NC(=O)[C@H](CCCNC(=N)N)NC(=O)CNC1=O)C(=O)N[C@@H](Cc1ccc(O)cc1)C(=O)N[C@@H](CCCNC(N)=O)C(=O)N[C@@H](CCCCN)C(=O)N1CCC[C@@H]1C(=O)N1CCC[C@H]1C(=O)N[C@@H](Cc1ccc(O)cc1)C(=O)N[C@@H](CCCNC(=N)N)C(=O)N[C@@H](CCCNC(N)=O)C(=O)N2 [compound 53] (cyclo(YR[Cit]CRVGRR[2Nal]CY[Cit]K[dP]P); disulfide 4-11)
- CC50 at 48 h [3]: 86 µM
- Hemolysis at 100 μM [1]: 0.2%
- FIGS % inhibition at 200 nM [2]: 91.8%
- IC50 (CXCR4): 57.8 nM

SMILES: N=C(N)NCCC[C@@H]1NC(=O)CNC(=O)CNC(=O)[C@H](CCCNC(=N)N)NC(=O)[C@@H]2CSSC[C@H](NC(=O)[C@H](Cc3ccc4ccccc4c3)NC(=O)[C@H](CCCNC(=N)N)NC1=O)C(=O)N[C@@H](Cc1ccc(O)cc1)C(=O)N[C@@H](CCCNC(N)=O)C(=O)N[C@@H](CCCCN)C(=O)N1CCC[C@@H]1C(=O)N1CCC[C@H]1C(=O)N[C@@H](Cc1ccc(O)cc1)C(=O)N[C@@H](CCCNC(=N)N)C(=O)N[C@@H](CCCNC(N)=O)C(=O)N2 [Ex. 52] (cyclo(YR[Cit]CRGGRR[2Nal]CY[Cit]K[dP]P); disulfide 4-11)
- CC50 at 48 h [3]: 99 µM
- Hemolysis at 100 μM [1]: 0%
- IC50 (CCRF-CEM cells): 2.75 µM
- FIGS % inhibition at 200 nM [2]: 95.4%
- IC50 (CXCR4): 3.1 nM
